Measured values published in patent US7417156B2, “Orally active, antimalarial, anticancer, artemisinin-derived trioxane dimers” (Johns Hopkins University, priority 2002, dated 2008).

Legend:
786-0 = assay: NCI 60 cell line panel screen (SRB); format: cell-based, human
SK-MEL-2 = assay: NCI 60 cell line panel screen (SRB); format: cell-based, human
TK-10 = assay: NCI 60 cell line panel screen (SRB); format: cell-based, human
SNB-19 = assay: NCI 60 cell line panel screen (SRB); format: cell-based, human
M14 = assay: NCI 60 cell line panel screen (SRB); format: cell-based, human
60 cell line panel = format: cell-based
T-47D = assay: NCI 60 cell line panel screen (SRB); format: cell-based, human; settings: T-47D (Breast Cancer)
SK-MEL-28 = assay: NCI 60 cell line panel screen (SRB); format: cell-based, human
PC-3 = assay: NCI 60 cell line panel screen (SRB); format: cell-based, human
HCT-15 = assay: NCI 60 cell line panel screen (SRB); format: cell-based, human
KM12 = assay: NCI 60 cell line panel screen (SRB); format: cell-based, human
HS 578T = assay: NCI 60 cell line panel screen (SRB); format: cell-based, human
COLO 205 = assay: NCI 60 cell line panel screen (SRB); format: cell-based, human
HOP-92 = assay: NCI 60 cell line panel screen (SRB); format: cell-based, human
UO-31 = assay: NCI 60 cell line panel screen (SRB); format: cell-based, human
SNB-75 = assay: NCI 60 cell line panel screen (SRB); format: cell-based, human
NCI-H460 = assay: NCI 60 cell line panel screen (SRB); format: cell-based, human
U251 = assay: NCI 60 cell line panel screen (SRB); format: cell-based, human
RPMI-8226 = assay: NCI 60 cell line panel screen (SRB); format: cell-based, human
ACHN = assay: NCI 60 cell line panel screen (SRB); format: cell-based, human
HCT-116 = assay: NCI 60 cell line panel screen (SRB); format: cell-based, human
MALME-3M = assay: NCI 60 cell line panel screen (SRB); format: cell-based, human; settings: MALME-3M (Melanoma)
NCI-H23 = assay: NCI 60 cell line panel screen (SRB); format: cell-based, human
OVCAR-5 = assay: NCI 60 cell line panel screen (SRB); format: cell-based, human
IGROVI = assay: NCI 60 cell line panel screen (SRB); format: cell-based, human

Q: With `C[C@@H]1CC[C@H]2[C@@H](C)C(=O)O[C@@H]3O[C@]4(C)CC[C@@H]1[C@]32OO4` [Artemisinin] as the compound, how does the Log10LC50 (786-0; 786-0 (Renal Cancer), LC50: PG=−50) read?
A: >−4.00 log10M

Q: And the Log10TGI50 (786-0; 786-0 (Renal Cancer), TGI: PG=0)?
A: >−4.00 log10M

Q: What about the Log10GI50 (786-0; Renal Cancer, 786-0) of the same compound?
A: >−4.00

Q: What about the Log10LC50 (SK-MEL-2; SK-MEL2 (Melanoma), LC50: PG=−50) of the same compound?
A: >−4.00 log10M

Q: And the Log10TGI50 (SK-MEL-2; SK-MEL-2 (Melanoma), TGI: PG=0)?
A: >−4.00 log10M

Q: What about the Log10GI50 (TK-10; Renal Cancer, TK-10) of the same compound?
A: >−4.00

Q: What about the Log10LC50 (TK-10; TK-10 (Renal Cancer), LC50: PG=−50) of the same compound?
A: >−4.00 log10M

Q: And the Log10TGI50 (TK-10; TK-10 (Renal Cancer), TGI: PG=0)?
A: >−4.00 log10M

Q: What about the Log10GI50 (SNB-19; CNS Cancer, SNB-19) of the same compound?
A: >−4.00

Q: And the Log10LC50 (SNB-19; SNB-19 (CNS Cancer), LC50: PG=−50)?
A: >−4.00 log10M

Q: What about the Log10TGI50 (SNB-19; SNB-19 (CNS Cancer), TGI: PG=0) of the same compound?
A: >−4.00 log10M

Q: What about the Log10LC50 (M14; M14 (Melanoma), LC50: PG=−50) of the same compound?
A: >−4.00 log10M

Q: What about the Log10TGI50 (M14; M-14 (Melanoma), TGI: PG=0) of the same compound?
A: >−4.00 log10M

Q: And the “Log10GI50 Delta” value (60 cell line panel)?
A: −4.07

Q: What about the “Log10GI50 Range” value (60 cell line panel) of the same compound?
A: 0.73

Q: What about the “Log10LC50 Delta” value (60 cell line panel; 60 cell line panel) of the same compound?
A: −4.00

Q: And the “Log10LC50 Range” value (60 cell line panel; 60 cell line panel)?
A: 0.00

Q: And the “Log10TGI50 Delta” value (60 cell line panel; 60 cell line panel)?
A: −4.00

Q: What about the “Log10TGI50 Range” value (60 cell line panel; 60 cell line panel) of the same compound?
A: 0.06

Q: What about the Log10LC50 (T-47D; LC50: PG=−50) of the same compound?
A: >−4.00 log10M

Q: What about the Log10TGI50 (T-47D; TGI: PG=0) of the same compound?
A: >−4.00 log10M

Q: And the Log10GI50 (SK-MEL-28; Melanoma, SK-MEL-28)?
A: >−4.00

Q: What about the Log10LC50 (SK-MEL-28; SK-MEL-28 (Melanoma), LC50: PG=−50) of the same compound?
A: >−4.00 log10M

Q: And the Log10TGI50 (SK-MEL-28; SK-MEL-28 (Melanoma), TGI: PG=0)?
A: >−4.00 log10M

Q: And the Log10LC50 (PC-3; PC-3 (Prostate Cancer), LC50: PG=−50)?
A: >−4.00 log10M

Q: And the Log10TGI50 (PC-3; PC-3 (Prostate Cancer), TGI: PG=0)?
A: −4.00 log10M

Q: What about the Log10GI50 (PC-3; Prostate Cancer, PC-3) of the same compound?
A: −4.17

Q: And the Log10GI50 (HCT-15; Colon Cancer, HCT-15)?
A: >−4.00

Q: And the Log10LC50 (HCT-15; HCT-15 (Colon Cancer), LC50: PG=−50)?
A: >−4.00 log10M

Q: And the Log10TGI50 (HCT-15; HCT-15 (Colon Cancer), TGI: PG=0)?
A: >−4.00 log10M

Q: What about the Log10GI50 (KM12; Colon Cancer, KM12) of the same compound?
A: >−4.00

Q: And the Log10LC50 (KM12; KM12 (Colon Cancer), LC50: PG=−50)?
A: >−4.00 log10M

Q: And the Log10TGI50 (KM12; KM12 (Colon Cancer), TGI: PG=0)?
A: >−4.00 log10M

Q: What about the Log10GI50 (HS 578T; Breast Cancer, HS 578T) of the same compound?
A: >−4.00

Q: And the Log10LC50 (HS 578T; HS 578T (Breast Cancer), LC50: PG=−50)?
A: >−4.00 log10M

Q: And the Log10TGI50 (HS 578T; HS 578T (Breast Cancer), TGI: PG=0)?
A: >−4.00 log10M

Q: What about the Log10LC50 (COLO 205; COLO 205 (Colon Cancer), LC50: PG=−50) of the same compound?
A: >−4.00 log10M

Q: What about the Log10TGI50 (COLO 205; COLO 205 (Colon Cancer), TGI: PG=0) of the same compound?
A: >−4.00 log10M

Q: And the Log10GI50 (COLO 205; Colon Cancer, COLO 205)?
A: >−4.00

Q: And the Log10LC50 (HOP-92; HOP-92 (Non-Small Cell Lung Cancer), LC50: PG=−50)?
A: >−4.00 log10M

Q: What about the Log10TGI50 (HOP-92; HOP-92 (Non-Small Cell Lung Cancer), TGI: PG=0) of the same compound?
A: >−4.00 log10M

Q: And the Log10GI50 (HOP-92; Non-Small Cell Lung Cancer, HOP-92)?
A: >−4.00

Q: And the Log10GI50 (UO-31; Renal Cancer, UO-31)?
A: −4.06

Q: What about the Log10LC50 (UO-31; UO-31 (Renal Cancer), LC50: PG=−50) of the same compound?
A: >−4.00 log10M

Q: And the Log10TGI50 (UO-31; UO-31 (Renal Cancer), TGI: PG=0)?
A: >−4.00 log10M

Q: And the Log10GI50 (SNB-75; CNS Cancer, SNB-75)?
A: >−4.00

Q: What about the Log10LC50 (SNB-75; SNB-75 (CNS Cancer), LC50: PG=−50) of the same compound?
A: >−4.00 log10M

Q: And the Log10TGI50 (SNB-75; SNB-75 (CNS Cancer), TGI: PG=0)?
A: >−4.00 log10M

Q: What about the Log10LC50 (NCI-H460; NCI-H460 (Non-Small Cell Lung Cancer), LC50: PG=−50) of the same compound?
A: >−4.00 log10M

Q: What about the Log10TGI50 (NCI-H460; NCI-H460 (Non-Small Cell Lung Cancer), TGI: PG=0) of the same compound?
A: >−4.00 log10M

Q: And the Log10GI50 (NCI-H460; Non-Small Cell Lung Cancer, NCI-H460)?
A: >−4.00

Q: And the Log10GI50 (U251; CNS Cancer, U251)?
A: >−4.00

Q: And the Log10LC50 (U251; U251 (CNS Cancer), LC50: PG=−50)?
A: >−4.00 log10M

Q: And the Log10TGI50 (U251; U251 (CNS Cancer), TGI: PG=0)?
A: >−4.00 log10M

Q: What about the Log10GI50 (RPMI-8226; Leukemia, RPMI-8226) of the same compound?
A: >−4.00

Q: And the Log10LC50 (RPMI-8226; RPMI-8226 (Leukemia), LC50: PG=−50)?
A: >−4.00 log10M

Q: What about the Log10TGI50 (RPMI-8226; RPMI-8226 (Leukemia), TGI: PG=0) of the same compound?
A: >−4.00 log10M

Q: And the Log10LC50 (ACHN; ACHN (Renal Cancer), LC50: PG=−50)?
A: >−4.00 log10M

Q: And the Log10TGI50 (ACHN; ACHN (Renal Cancer), TGI: PG=0)?
A: >−4.00 log10M

Q: And the Log10GI50 (ACHN; Renal Cancer, ACHN)?
A: >−4.00

Q: And the Log10GI50 (HCT-116; Colon Cancer, HCT-116)?
A: −4.18

Q: What about the Log10LC50 (HCT-116; HCT-116 (Colon Cancer), LC50: PG=−50) of the same compound?
A: >−4.00 log10M

Q: What about the Log10TGI50 (HCT-116; HCT-116 (Colon Cancer), TGI: PG=0) of the same compound?
A: >−4.00 log10M

Q: And the Log10LC50 (MALME-3M; LC50: PG=−50)?
A: >−4.00 log10M

Q: What about the Log10TGI50 (MALME-3M; TGI: PG=0) of the same compound?
A: −4.06 log10M

Q: And the Log10LC50 (NCI-H23; NCI-H23 (Non-Small Cell Lung Cancer), LC50: PG=−50)?
A: >−4.00 log10M

Q: And the Log10TGI50 (NCI-H23; NCI-H23 (Non-Small Cell Lung Cancer), TGI: PG=0)?
A: >−4.00 log10M

Q: What about the Log10GI50 (NCI-H23; Non-Small Cell Lung Cancer, NCI-H23) of the same compound?
A: >−4.00

Q: And the Log10LC50 (OVCAR-5; OVCAR-5 (Ovarian Cancer), LC50: PG=−50)?
A: >−4.00 log10M

Q: What about the Log10TGI50 (OVCAR-5; OVCAR-5 (Ovarian Cancer), TGI: PG=0) of the same compound?
A: >−4.00 log10M

Q: What about the Log10GI50 (OVCAR-5; Ovarian Cancer, OVCAR-5) of the same compound?
A: >−4.00

Q: And the Log10LC50 (IGROVI; IGROVI (Ovarian Cancer), LC50: PG=−50)?
A: >−4.00 log10M

Q: What about the Log10TGI50 (IGROVI; IGROVI (Ovarian Cancer), TGI: PG=0) of the same compound?
A: >−4.00 log10M

Q: And the Log10GI50 (IGROVI; Ovarian Cancer, IGROVI)?
A: −4.31
